Test results as given in patent US20190022165A1, “METHODS AND COMPOSITIONS FOR THE TREATMENT AND PREVENTION OF PULMONARY ARTERIAL HYPERTENSION” (STEALTH BIOTHERAPEUTICS CORP, priority 2016, published 2019).

Tests used:
[1] = test system: several mammalian cell types; conditions: cited from earlier work
[2] = test system: heart failure subjects with reduced ejection fraction (HFrEF≤35%); assay: Single ascending dose trial, 2-D echocardiography: right ventricular fractional area change (RV FAC); format: in vivo, human; conditions: for RV FAC Δ from baseline, Mean Active Group with 95% CI: Cohort 3, 0.25 mg/kg/hour IV 4-hour infusion
Method: (§1) A single-center, randomized, double-blind, placebo-controlled, single ascending dose trial of D-Arg-2′6′-Dmt-Lys-Phe-NH2 was performed in heart failure subjects aged 45-80 years (n=36) with reduced ejection fraction (HFrEF≤35%). Three sequential dose-escalation cohorts were enrolled and administered a single intravenous (IV) dose of D-Arg-2′6′-Dmt-Lys-Phe-NH2 by a 4-hour infusion. In each cohort, 8 subjects were randomly assigned to receive D-Arg-2′6′-Dmt-Lys-Phe-NH2 (active group) and 4 to receive placebo (placebo group infused with 0.9% saline solution in the same manner as the D-Arg-2′6′-Dmt-Lys-Phe-NH2 active group). Eligible subjects were admitted to the research unit on Day 1, were randomized and received the study drug infusion on Day 2 and were discharged on Day 3. Subjects returned to the research unit on Day 7 (+3) for follow-up. The dose levels of D-Arg-2′6′-Dmt-Lys-Phe-NH2 in Cohorts 1, 2, and 3 were 0.005, 0.05, and 0.25 mg/kg/hour, respectively.
(§2) A single dose of the aromatic-cationic peptide, D-Arg-2′6′-Dmt-Lys-Phe-NH2, was administered intravenously (IV) at 0.005 mg/kg/hour (Cohort 1; low dose), 0.05 mg/kg/hour (Cohort 2; intermediate dose), and 0.25 mg/kg/hour (Cohort 3; high dose) over 4 hours at 60 mL/hour.
(§3) Echocardiograms (2-D) were performed on Day 2 at pre-dose (0-hr), mid-dose (2-hr), end-dose (4-hr), and 6 hours, 8 hours, 12 hours after infusion initiation, and at Day 3 at 24 hours after infusion initiation in every subject. Primary echo endpoints included end-diastolic volume (EDV) and EDV index, and end-systolic volume (ESV) and ESV index. Secondary echo endpoints included left atrial (LA) volume, right ventricular fractional area change (RV FAC), and right ventricular systolic pressure (RVSP). Exploratory echo endpoints included global longitudinal strain.
(§4) All statistical analyses, summary tables and data listings were prepared using SAS software Version 9.2 or higher. Overall differences in pharmacokinetic parameters of systemic exposure (e.g., Cmax and AUC) across the 3 different dosing regimens were evaluated by ANOVA. In general, significance was determined at the p<0.05 level. For continuous variables, descriptive statistics (sample size, mean, standard deviation, median, minimum, and maximum values) were determined. For discrete variables, frequency distributions were generated.

[3] = test system: heart failure subjects with reduced ejection fraction (HFrEF≤35%); assay: Single ascending dose trial, 2-D echocardiography: right ventricular systolic pressure (RVSP); format: in vivo, human
Method: as §1, §2, §3, §4

[4] = Cohort 3, 0.25 mg/kg/hour, 6 Hours
[5] = Cohort 3, 0.25 mg/kg/hour, 8 Hours
[6] = Cohort 3, 0.25 mg/kg/hour, 12 Hours
[7] = Cohort 3, 0.25 mg/kg/hour, 24 Hours
[8] = Cohort 3, 0.25 mg/kg/hour, End-Dose
[9] = Cohort 3, 0.25 mg/kg/hour, Mid-Dose

## 2′,6′-Dmt-D-Arg-Phe-Lys-NH2
[1]
  penetration of the plasma membrane: readily penetrates the plasma membrane of several mammalian cell types in an energy-independent manner

## D-Arg-2′6′-Dmt-Lys-Phe-NH2
[2]; Cohort 3, 0.25 mg/kg/hour
  right ventricular fractional area change (RV FAC), in words: overall improvement in right ventricular fractional area change (RV FAC)
[2]; 6 Hours
  RV FAC Δ from baseline, Mean Active Group with 95% CI: 2.6 (−0.7, 5.9) %
[2]; 8 Hours
  RV FAC Δ from baseline, Mean Active Group with 95% CI: 3.4 (−0.7, 7.5) %
[2]; 12 Hours
  RV FAC Δ from baseline, Mean Active Group with 95% CI: 1.7 (−4.0, 7.4) %
[2]; 24 Hours
  RV FAC Δ from baseline, Mean Active Group with 95% CI: 2.5 (−2.0, 7.0) %
[2]; End-Dose
  RV FAC Δ from baseline, Mean Active Group with 95% CI: 0.3 (−4.8, 5.5) %
[2]; Mid-Dose
  RV FAC Δ from baseline, Mean Active Group with 95% CI: 1.6 (−2.6, 5.8) %
[2]; [4]
  RV FAC Δ from baseline, Mean Difference (active vs pooled placebo): 3.8%
[2]; [5]
  RV FAC Δ from baseline, Mean Difference (active vs pooled placebo): 4.6%
[2]; [6]
  RV FAC Δ from baseline, Mean Difference (active vs pooled placebo): 8.9%
[2]; [7]
  RV FAC Δ from baseline, Mean Difference (active vs pooled placebo): 3.8%
[2]; [8]
  RV FAC Δ from baseline, Mean Difference (active vs pooled placebo): 0.3%
[2]; [9]
  RV FAC Δ from baseline, Mean Difference (active vs pooled placebo): 3.8%
[3]; Cohort 2, 0.05 mg/kg/hour IV 4-hour infusion, 6 Hours
  RVSP Δ from baseline, Mean Active Group: −4.8 mmHg
[3]; Cohort 2, 0.05 mg/kg/hour IV 4-hour infusion, 8 Hours
  RVSP Δ from baseline, Mean Active Group: −6.5 mmHg
[3]; Cohort 2, 0.05 mg/kg/hour IV 4-hour infusion, 12 Hours
  RVSP Δ from baseline, Mean Active Group: −5.6 mmHg
[3]; Cohort 2, 0.05 mg/kg/hour IV 4-hour infusion, 24 Hours
  RVSP Δ from baseline, Mean Active Group: −5.3 mmHg
[3]; Cohort 2, 0.05 mg/kg/hour IV 4-hour infusion, End-Dose
  RVSP Δ from baseline, Mean Active Group: −9.9 mmHg
[3]; Cohort 2, 0.05 mg/kg/hour IV 4-hour infusion, Mid-Dose
  RVSP Δ from baseline, Mean Active Group: −8.5 mmHg
[3]; Cohort 2, 0.05 mg/kg/hour, 6 Hours
  RVSP Δ from baseline, Mean Difference (active vs pooled placebo): −4.4 mmHg
[3]; Cohort 2, 0.05 mg/kg/hour, 8 Hours
  RVSP Δ from baseline, Mean Difference (active vs pooled placebo): −4.4 mmHg
[3]; Cohort 2, 0.05 mg/kg/hour, 12 Hours
  RVSP Δ from baseline, Mean Difference (active vs pooled placebo): −9.7 mmHg
[3]; Cohort 2, 0.05 mg/kg/hour, 24 Hours
  RVSP Δ from baseline, Mean Difference (active vs pooled placebo): −5.0 mmHg
[3]; Cohort 2, 0.05 mg/kg/hour, End-Dose
  RVSP Δ from baseline, Mean Difference (active vs pooled placebo): −19.1 mmHg
[3]; Cohort 2, 0.05 mg/kg/hour, Mid-Dose
  RVSP Δ from baseline, Mean Difference (active vs pooled placebo): −8.2 mmHg
[3]; Cohort 2, 0.05 mg/kg/hour, at end dose
  pulmonary pressures (RVSP) relative to baseline, in words: significant decrease in pulmonary pressures (RVSP)
[3]; Cohort 3, 0.25 mg/kg/hour IV 4-hour infusion, 6 Hours
  RVSP Δ from baseline, Mean Active Group: −11.7 mmHg
[3]; Cohort 3, 0.25 mg/kg/hour IV 4-hour infusion, 8 Hours
  RVSP Δ from baseline, Mean Active Group: −1.3 mmHg
[3]; Cohort 3, 0.25 mg/kg/hour IV 4-hour infusion, 12 Hours
  RVSP Δ from baseline, Mean Active Group: 2.6 mmHg
[3]; Cohort 3, 0.25 mg/kg/hour IV 4-hour infusion, 24 Hours
  RVSP Δ from baseline, Mean Active Group: −1.6 mmHg
[3]; Cohort 3, 0.25 mg/kg/hour IV 4-hour infusion, End-Dose
  RVSP Δ from baseline, Mean Active Group: −1.2 mmHg
[3]; Cohort 3, 0.25 mg/kg/hour IV 4-hour infusion, Mid-Dose
  RVSP Δ from baseline, Mean Active Group: 0.9 mmHg
[3]; [4]
  RVSP Δ from baseline, Mean Difference (active vs pooled placebo): −11.3 mmHg
[3]; [5]
  RVSP Δ from baseline, Mean Difference (active vs pooled placebo): 0.9 mmHg
[3]; [6]
  RVSP Δ from baseline, Mean Difference (active vs pooled placebo): −1.5 mmHg
[3]; [7]
  RVSP Δ from baseline, Mean Difference (active vs pooled placebo): −1.3 mmHg
[3]; [8]
  RVSP Δ from baseline, Mean Difference (active vs pooled placebo): −10.3 mmHg
[3]; [9]
  RVSP Δ from baseline, Mean Difference (active vs pooled placebo): 1.1 mmHg
